Reference: ChEMBL document CHEMBL1201862, “PubChem BioAssay data set” (2004)
Calls of active or inactive are those of the source.

Columns and labels:
Troponin, cardiac muscle = Troponin, cardiac muscle (Homo sapiens, UniProt P19429+P45379+P63316); test: Fluorescence-based biochemical high throughput dose response assay for activators of the calcium sensitivity of cardiac Regulated Thin Filaments (RTF). [Related pubchem assays (depositor defined):AID493008, AID493018, AID504382, AID504383]; type: protein-complex assay
[1] = molecular target: Peroxisome proliferator-activated receptor gamma/Nuclear receptor coactivator 1 (Homo sapiens, UniProt P37231); test: (§1) TR-FRET dose response biochemical High Throughput Screening assay for agonists of the steroid receptor coactivator 1 (SRC-1) recruitment by the peroxisome proliferator-activated receptor gamma (PPAR gamma): non-selective agonists. [Related pubchem assays (depositor defined):AID1300, AID1808, AID504735, AID631]; type: protein assay
[2] = molecular target: Peroxisome proliferator-activated receptor gamma/Nuclear receptor coactivator 3 (Homo sapiens, UniProt P37231); test: as §1, with “3 (SRC-3)” for “1 (SRC-1)”, “assays: 1301 (Confirmation screen.), 1048 (Primary screen.)]” for “assays (depositor defined):AID1300, AID1808, AID504735, AID631]”; type: functional
[3] = molecular target: Peroxisome proliferator-activated receptor gamma/Nuclear receptor coactivator 2 (Homo sapiens, UniProt P37231); test: TR-FRET dose response biochemical High Throughput Screening assay for agonists of the steroid receptor coactivator 2 (SRC-2) recruitment by the peroxisome proliferator-activated receptor gamma (PPAR gamma): non-selective agonists. [Related pubchem assays: 1297, 1032 ]; type: functional
HEK293 [4] = test: inhibition of NOD1-driven NF-kB reporter – cell-based, luminescence, uHTS, primary screen (AID 1578); type: functional; conditions: Homo sapiens
HEK293 [5] = test: cells; type: functional, cell-based; conditions: Homo sapiens
HEK293 [6] = test: cells; type: functional, cell-based; conditions: Homo sapiens; remark: listed apart in the source
HEK293 [7] = test: NOD2 signaling inhibitors in MDP-stimulated cells, cell-based, uHTS, luminescence (AID 2001); type: functional; conditions: Homo sapiens
[8] = molecular target: DNA damage-inducible transcript 3 protein (Mus musculus, UniProt P35639); type: functional, Cricetulus griseus
X-box-binding protein 1 = molecular target: T1, X-box-binding protein 1 (Homo sapiens, UniProt P17861); type: functional, Cricetulus griseus;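 also: confirmatory dose-response counter-screen serving a CHOP assay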
T1 sequence (P17861 whole entry): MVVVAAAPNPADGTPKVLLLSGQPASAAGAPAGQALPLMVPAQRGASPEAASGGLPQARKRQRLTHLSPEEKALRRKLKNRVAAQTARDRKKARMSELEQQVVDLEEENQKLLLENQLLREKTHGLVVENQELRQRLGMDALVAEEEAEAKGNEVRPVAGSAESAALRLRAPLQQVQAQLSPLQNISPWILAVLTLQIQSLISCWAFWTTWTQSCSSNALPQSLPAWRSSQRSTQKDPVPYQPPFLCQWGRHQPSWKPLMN

[9] = molecular target: G-protein coupled receptor 55 (Homo sapiens, UniProt Q9Y2T6); test: blockers of GPR55 signalling, imaged – imaging, image-based, counter-screen for GPR35 antagonist project, SAR follow-up (AID 2397); type: functional
[10] = off-target signal loss in HeLa-CEM21 co-culture – HeLa F-luc CTL cells, cherry-picked, counter-screen for HIV-1 Env fusion inhibitor project, dose response (AID 652040); type: functional, cell-based;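 also: potency for signal decrease marking cytotoxic or nonspecific inhibition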
[11] = molecular target: T2, Mannose-6-phosphate isomerase (Homo sapiens, UniProt P34949); test: phosphomannose isomerase inhibition – biochemical, fluorescence intensity, confirmation (AID 1535)
T2 sequence (P34949 whole entry): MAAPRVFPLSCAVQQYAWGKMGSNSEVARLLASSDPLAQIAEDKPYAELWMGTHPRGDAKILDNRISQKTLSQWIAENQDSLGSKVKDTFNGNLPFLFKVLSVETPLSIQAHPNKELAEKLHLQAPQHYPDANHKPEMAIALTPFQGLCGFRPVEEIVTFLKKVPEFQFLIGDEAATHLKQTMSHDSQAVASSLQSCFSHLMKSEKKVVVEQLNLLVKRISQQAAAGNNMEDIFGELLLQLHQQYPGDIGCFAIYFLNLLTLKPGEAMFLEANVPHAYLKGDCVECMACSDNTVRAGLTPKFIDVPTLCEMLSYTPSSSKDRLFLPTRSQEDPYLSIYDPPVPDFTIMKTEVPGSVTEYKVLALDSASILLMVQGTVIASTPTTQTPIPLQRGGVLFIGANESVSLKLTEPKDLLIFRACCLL

Phosphomannomutase 2 = Phosphomannomutase 2 (Homo sapiens, UniProt O15305); test: Counter screen SAR assay for PMM2 inhibitors via a fluorescence intensity assay. [Related pubchem assays (depositor defined):AID1545, AID1574]
Chain of Phosphomannomutase 2 (O15305 whole entry): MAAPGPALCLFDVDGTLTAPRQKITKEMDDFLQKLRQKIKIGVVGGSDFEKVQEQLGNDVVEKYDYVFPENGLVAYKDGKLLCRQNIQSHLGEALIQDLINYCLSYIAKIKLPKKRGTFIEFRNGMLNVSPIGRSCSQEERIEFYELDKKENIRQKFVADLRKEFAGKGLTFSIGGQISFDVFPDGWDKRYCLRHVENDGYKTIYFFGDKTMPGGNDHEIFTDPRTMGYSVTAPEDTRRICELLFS

Chain of G-protein coupled receptor 55 (Q9Y2T6 whole entry, the tested form may be a part): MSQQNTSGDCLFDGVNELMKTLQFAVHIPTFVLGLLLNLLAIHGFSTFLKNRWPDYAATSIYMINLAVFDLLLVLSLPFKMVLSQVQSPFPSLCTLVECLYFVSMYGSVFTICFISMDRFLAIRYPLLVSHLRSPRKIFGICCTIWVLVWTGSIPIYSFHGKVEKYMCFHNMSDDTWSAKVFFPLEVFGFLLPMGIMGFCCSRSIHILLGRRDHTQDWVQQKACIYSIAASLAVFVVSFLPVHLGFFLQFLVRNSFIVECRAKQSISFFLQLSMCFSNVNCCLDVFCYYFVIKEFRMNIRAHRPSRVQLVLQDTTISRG
Chain of DNA damage-inducible transcript 3 protein (P35639 whole entry): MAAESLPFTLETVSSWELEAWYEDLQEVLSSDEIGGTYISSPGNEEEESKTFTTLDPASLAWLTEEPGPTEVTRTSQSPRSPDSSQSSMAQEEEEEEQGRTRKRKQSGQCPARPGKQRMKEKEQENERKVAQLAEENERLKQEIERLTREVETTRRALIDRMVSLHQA
Chain of Peroxisome proliferator-activated receptor gamma/Nuclear receptor coactivator 1 (P37231 whole entry): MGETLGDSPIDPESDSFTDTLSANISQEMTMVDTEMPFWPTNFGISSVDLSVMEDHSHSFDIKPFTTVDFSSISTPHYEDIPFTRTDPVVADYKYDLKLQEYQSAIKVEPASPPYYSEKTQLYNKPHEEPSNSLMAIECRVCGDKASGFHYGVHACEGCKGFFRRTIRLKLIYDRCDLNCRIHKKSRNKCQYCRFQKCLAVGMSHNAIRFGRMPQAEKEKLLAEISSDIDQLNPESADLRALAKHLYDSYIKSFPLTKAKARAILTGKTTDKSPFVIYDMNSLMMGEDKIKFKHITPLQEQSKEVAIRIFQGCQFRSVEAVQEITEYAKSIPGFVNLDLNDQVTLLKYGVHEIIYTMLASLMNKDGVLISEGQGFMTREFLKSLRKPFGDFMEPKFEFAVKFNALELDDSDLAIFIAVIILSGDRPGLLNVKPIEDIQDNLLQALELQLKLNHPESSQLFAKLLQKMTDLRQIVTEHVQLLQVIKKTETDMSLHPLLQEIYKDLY
Chain of Peroxisome proliferator-activated receptor gamma/Nuclear receptor coactivator 1 (Q15788 whole entry, further chain): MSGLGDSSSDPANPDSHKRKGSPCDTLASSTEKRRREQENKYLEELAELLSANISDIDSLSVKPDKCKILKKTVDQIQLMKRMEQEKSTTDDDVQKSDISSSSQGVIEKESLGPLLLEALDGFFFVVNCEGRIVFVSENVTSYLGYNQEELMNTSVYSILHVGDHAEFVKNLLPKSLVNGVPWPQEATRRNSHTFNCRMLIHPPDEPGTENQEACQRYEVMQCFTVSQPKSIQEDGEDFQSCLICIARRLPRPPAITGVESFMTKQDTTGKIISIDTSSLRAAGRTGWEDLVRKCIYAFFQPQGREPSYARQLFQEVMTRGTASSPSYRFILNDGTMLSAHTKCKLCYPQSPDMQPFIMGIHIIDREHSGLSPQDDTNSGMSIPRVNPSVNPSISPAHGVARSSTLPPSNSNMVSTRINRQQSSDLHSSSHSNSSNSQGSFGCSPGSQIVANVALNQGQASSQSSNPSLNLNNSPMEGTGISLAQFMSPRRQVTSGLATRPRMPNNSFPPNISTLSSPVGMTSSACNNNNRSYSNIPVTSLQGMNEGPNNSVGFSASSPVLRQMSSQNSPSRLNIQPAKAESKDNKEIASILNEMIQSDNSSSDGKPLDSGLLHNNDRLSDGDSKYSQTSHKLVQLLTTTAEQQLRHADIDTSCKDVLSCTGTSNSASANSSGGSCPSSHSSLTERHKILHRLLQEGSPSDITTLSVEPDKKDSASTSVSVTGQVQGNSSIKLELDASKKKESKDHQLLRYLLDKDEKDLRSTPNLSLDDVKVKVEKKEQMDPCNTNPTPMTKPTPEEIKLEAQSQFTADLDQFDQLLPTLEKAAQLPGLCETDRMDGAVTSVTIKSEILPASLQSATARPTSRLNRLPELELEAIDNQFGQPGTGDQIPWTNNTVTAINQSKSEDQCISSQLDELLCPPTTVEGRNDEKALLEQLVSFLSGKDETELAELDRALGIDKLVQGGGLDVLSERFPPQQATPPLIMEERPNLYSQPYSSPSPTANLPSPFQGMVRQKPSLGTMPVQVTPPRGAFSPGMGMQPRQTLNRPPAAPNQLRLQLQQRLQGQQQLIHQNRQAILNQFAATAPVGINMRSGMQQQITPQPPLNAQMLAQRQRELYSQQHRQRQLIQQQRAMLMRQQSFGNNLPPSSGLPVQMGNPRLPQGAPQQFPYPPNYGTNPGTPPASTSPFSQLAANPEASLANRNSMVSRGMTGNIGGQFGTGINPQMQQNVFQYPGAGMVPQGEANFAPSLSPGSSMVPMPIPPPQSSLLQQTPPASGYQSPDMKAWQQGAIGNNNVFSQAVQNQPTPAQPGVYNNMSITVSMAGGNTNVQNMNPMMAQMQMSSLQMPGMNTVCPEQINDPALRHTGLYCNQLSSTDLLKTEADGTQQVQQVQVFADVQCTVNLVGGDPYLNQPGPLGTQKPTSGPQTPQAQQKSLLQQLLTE
Chain of Peroxisome proliferator-activated receptor gamma/Nuclear receptor coactivator 2 (P37231 whole entry): as the sequence (P37231 whole entry) above
Chain of Peroxisome proliferator-activated receptor gamma/Nuclear receptor coactivator 2 (Q15596 whole entry, further chain): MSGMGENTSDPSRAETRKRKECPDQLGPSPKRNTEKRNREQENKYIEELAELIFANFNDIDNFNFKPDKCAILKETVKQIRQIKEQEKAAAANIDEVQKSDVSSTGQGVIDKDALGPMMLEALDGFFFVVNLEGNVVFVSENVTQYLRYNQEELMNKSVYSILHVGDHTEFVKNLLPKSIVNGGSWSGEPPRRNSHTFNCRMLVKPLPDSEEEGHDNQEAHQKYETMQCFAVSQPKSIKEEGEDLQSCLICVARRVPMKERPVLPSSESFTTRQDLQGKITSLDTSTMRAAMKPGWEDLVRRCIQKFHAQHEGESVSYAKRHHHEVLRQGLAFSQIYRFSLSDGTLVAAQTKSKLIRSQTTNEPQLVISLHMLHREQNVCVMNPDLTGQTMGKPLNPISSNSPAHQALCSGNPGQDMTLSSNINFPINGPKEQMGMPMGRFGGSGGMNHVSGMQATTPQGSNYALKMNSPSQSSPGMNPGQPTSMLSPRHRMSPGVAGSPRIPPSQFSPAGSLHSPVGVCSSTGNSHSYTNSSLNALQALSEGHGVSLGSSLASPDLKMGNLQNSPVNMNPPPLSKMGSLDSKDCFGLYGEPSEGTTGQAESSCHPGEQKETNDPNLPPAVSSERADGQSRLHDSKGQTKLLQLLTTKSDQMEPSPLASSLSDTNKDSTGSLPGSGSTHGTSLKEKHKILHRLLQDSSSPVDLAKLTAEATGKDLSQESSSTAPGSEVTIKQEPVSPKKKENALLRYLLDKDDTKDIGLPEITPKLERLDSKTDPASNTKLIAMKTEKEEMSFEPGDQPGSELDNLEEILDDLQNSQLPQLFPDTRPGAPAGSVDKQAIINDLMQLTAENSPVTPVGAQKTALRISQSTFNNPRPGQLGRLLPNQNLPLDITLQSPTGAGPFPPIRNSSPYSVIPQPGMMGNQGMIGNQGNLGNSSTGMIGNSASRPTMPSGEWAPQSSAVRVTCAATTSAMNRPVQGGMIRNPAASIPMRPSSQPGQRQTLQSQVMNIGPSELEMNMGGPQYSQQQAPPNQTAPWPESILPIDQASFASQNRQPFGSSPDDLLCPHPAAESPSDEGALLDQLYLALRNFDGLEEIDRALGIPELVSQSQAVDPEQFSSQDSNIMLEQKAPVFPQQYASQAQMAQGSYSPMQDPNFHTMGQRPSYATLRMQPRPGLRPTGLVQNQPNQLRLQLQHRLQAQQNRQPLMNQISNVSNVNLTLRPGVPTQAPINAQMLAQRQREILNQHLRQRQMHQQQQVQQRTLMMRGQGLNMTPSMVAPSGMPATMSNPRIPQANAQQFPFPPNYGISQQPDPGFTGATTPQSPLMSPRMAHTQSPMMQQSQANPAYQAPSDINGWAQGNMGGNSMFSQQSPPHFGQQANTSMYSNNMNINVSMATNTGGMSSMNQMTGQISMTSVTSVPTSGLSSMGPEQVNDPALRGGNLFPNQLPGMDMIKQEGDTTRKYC

In the case of COc1cc(CCCN2C(S)=NC[C@@H]2CC2CCCCC2)cc(OC)c1OC, the EC50 (Troponin, cardiac muscle) is reported as > 71.5 µM (inactive).
For CSc1oc(-c2ccccc2)nc1C(N)=O, the EC50 [1] was 359 µM (inactive), the EC50 [2] was > 79.4 µM (not active) and the EC50 [3] was 60.1 µM (not active).
For O=C1NC(=O)N(Cc2ccco2)C(=O)/C1=C/C=C/c1ccco1, the EC50 (HEK293 [4]) was > 20 µM (inactive), the IC50 (HEK293 [5]) was 16.2 µM (active) and the IC50 (HEK293 [6]) was > 20 µM (inactive). The IC50 (HEK293 [7]) was > 20 µM (inactive), the “Absolute IC50 (CHOP)” value [8] was 10 µM and the “Absolute IC50 (XBP1)” value (X-box-binding protein 1) was 10 µM.
In the case of Cc1ccc(Cn2ncc3c(N4CCN(c5ccc(C)cc5)CC4)ncnc32)cc1, the IC50 [9] is reported as > 32 µM (inactive) and the AC50 [10] is reported as 6.95 µM (active).
For Clc1cccc(/N=c2\ssnc2Cl)c1, the IC50 [11] was 51.1 µM (active) and the IC50 (Phosphomannomutase 2) was > 100 µM (inactive).
For Cc1nc(N2CCC(C)CC2)c2c(C)c(C(=O)Nc3ccc(C)c(F)c3)sc2n1, the IC50 [9] was > 32 µM (inactive).
